Experimental data reported in patent publication US10988505B2.
pEC50, pKi: −log10 of the molar value.

Columns and labels:
X31 H3N2 influenza virus = assay: Influenza virus replication X31 in Calu-3 cells (viral plaque assay); format: cell-based; conditions: Calu-3 human bronchial epithelial cells, 48 h, read-out: calu3_x31_H3N2 EC50 (avg)
[1] = target: recombinant human matriptase (Homo sapiens (Human), UniProt Q9Y5Y6); assay: Matriptase inhibition, Ki determination; format: biochemical; conditions: purified recombinant human matriptase, Boc-Gln-Ala-Arg-AMC substrate, pH 7.4
cartilage damage = assay: Osteoarthritis (OA) model, DMM surgery; format: in vivo, C57BL/6J mice; conditions: DMM mice, 5 microlitre intraarticular injections of 10 mg/ml in saline on days 7 and 28, scored day 56
Experimental: The ability of the tested compound to protects against in vivo aggrecan loss in an osteoarthritis (OA) model was evaluated as described by Litherland G J. et al. Arthritis Rheumatol 2014; 66:2175-87.
OA was induced in C57BL/6J mice following destabilization of the medial meniscus (DMM) surgery. Mice received 5 microlitre intraarticular injections of either saline or Compound 1 (10 mg/ml in saline) on days 7 and 28 post surgery. At day 56 post-surgery, mice were killed, knee joints isolated and fixed overnight in 7% formaldehyde in PBS. Joints were decalcified in EDTA in PBS for 10 days and then wax embedded. Consecutive sections (6 μm) were stained with safranin 0 with hematoxylin counterstaining and then cartilage damage graded (by two blinded, independent observers) according to a published grading system [Litherland, 2014]: 0 (normal) to 6 (vertical clefts/erosion to the calcified cartilage extending to […] of the articular surface). Bars show the mean+/−SD of the highestscores in the medial tibial and femoral condyles for each joint. […] The results are depicted in FIG. 1.
**P<0.01 for the control and ***P<0.001 for Compound 1, by Kruskal-Wallis test with Dunn's multiple comparison test.

recombinant human matriptase, sequence (Q9Y5Y6 615-855, other chains not shown): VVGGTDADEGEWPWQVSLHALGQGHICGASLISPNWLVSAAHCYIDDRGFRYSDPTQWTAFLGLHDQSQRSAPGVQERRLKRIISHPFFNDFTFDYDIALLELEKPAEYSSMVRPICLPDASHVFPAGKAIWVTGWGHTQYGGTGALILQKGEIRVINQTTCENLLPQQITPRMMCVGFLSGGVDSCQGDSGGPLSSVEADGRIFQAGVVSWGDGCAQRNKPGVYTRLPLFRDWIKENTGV

SMILES	pEC50 (X31 H3N2 influenza virus)	pKi [1]	cartilage damage score (cartilage damage)
C[C@H](NC(=O)[C@H](CCC(N)=O)NC(=O)[C@@H](N)CCCNC(=N)N)C(=O)N[C@@H](CCCNC(=N)N)C(=O)c1nc2ccccc2s1 [Comparative #1, reference compound]	5.11		
C[C@H](NC(=O)[C@@H](N)CCC(N)=O)C(=O)N[C@@H](CCCNC(=N)N)C(=O)c1nc2ccccc2s1 [Comparative #2, reference compound]	5.24	10.06	
N=C(N)NCCCCC(=O)N[C@@H](CCC(N)=O)C(=O)N[C@@H](Cc1ccccc1)C(=O)N[C@@H](CCCNC(=N)N)C(=O)c1nc2ccccc2s1 [Example 1]	7.68	9.87	decreased the cartilage damage score
CC(=O)N[C@@H](CCC(N)=O)C(=O)N[C@@H](Cc1ccccc1)C(=O)N[C@@H](CCCNC(=N)N)C(=O)c1nc2ccccc2s1 [Example 3]	7.47		
